In patent US6156700A, “3-(1,2-Benzisothiazol- and isoxazol-5-yl)-2,4(1H,3H)-pyrimidinedione or thione and 3-(1,2-benzisothiazol- and isoxazol-5-yl)-4(3H)-pyrimidinone or thione herbicidal agents” (American Cyanmid Company, priority 1998, dated 2000):

Tests used:
[1] = tested on: SAGPY Arrowhead (Pygmaea); experiment: Postemergence weed control, flooded paddy (Table IV); format: in vivo, Sagittaria pygmaea; design: scale not given here
Excerpt: (§1) Plastic containers containing weeds which are 3 to 5 cm tall and rice seedlings at the 1.5 to 2.5 leaf stage are flooded with water. The water is maintained at 1.5 to 3 cm above the soil surface for the duration of the experiment. Test compounds are applied as aqueous/acetone mixtures 50/50 v/v directly into the flood water to provide the equivalent of about 0.0313 to 0.500 kg/ha of active ingredient. The treated containers are placed on greenhouse benches and cared for in accordance with conventional greenhouse procedures. Three to four weeks after treatment, the test is terminated and each container is examined and herbicidal effect rated according to the rating system provided in Example 185. The compounds evaluated are reported by compound number given in Example 185.

[2] = tested on: Ragweed, Common, Ambrosia artemisifolia; experiment: Preemergence herbicidal evaluation, AMBEL; format: in vivo, L.; conditions: 0.2500 kg/ha
Excerpt: (§2) Results of herbicide evaluation are expressed on a rating scale (0-9). The scale is based upon a visual observation of plant stand, vigor, malformation, size, chlorosis and overall plant appearance as compared with a control.
(§3) The preemergence herbicidal activity of the test compounds of the present invention is exemplified by the following tests in which the seeds of a variety of monocotyledonous and dicotyledonous plants are separately mixed with potting soil and planted on top of approximately one inch of soil in separate pint cups. After planting, the cups are sprayed with the selected aqueous acetone solution containing test compound in sufficient quantity to provide the equivalent of about 0.0156 to 0.500 kg per hectare of test compound per cup. The treated cups are then placed on greenhouse benches, watered and cared for in accordance with conventional greenhouse procedures. From four to five weeks after treatment, the tests are terminated and each cup is examined and rated according to the rating system provided in Example 185.
(§4) The compounds evaluated are reported by compound number given in Example 185.

ORYSAT Rice, Tebonnet [3] = experiment: Tolerance of transplanted rice to post-transplant application (Table III); format: in vivo, Oryza sativa; design: scale not given here; conditions: crop tolerance
Protocol: The tolerance of transplanted rice to post-transplanted herbicide applications is determined as follows: two ten-day-old rice seedlings (cv. Tebonnet) are transplanted into silt loam soil in 32 oz. plastic containers with a diameter of 10.5 cm and no drainage holes. After transplanting, the containers are flooded and the water level is maintained at 1.5 to 3 cm above the soil surface. Three days after transplanting, the flooded soil surface of the containers is treated with the selected aqueous/acetone 50/50 v/v mixture containing the test compounds to provide the equivalent of about 0.0313 to 0.500 kg/ha of active ingredient. The treated containers are placed on greenhouse benches, watered such that the water level is maintained as stated above, and cared for in accordance with conventional greenhouse procedures. Three to four weeks after treatment, the test is terminated and each container is examined and herbicidal effect rated according to the rating system provided in Example 185. The compounds evaluated are reported by compound number given in Example 185.

[4] = tested on: Barnyardgrass, Echinochloa crus-galli; experiment: Postemergence herbicidal evaluation, ECHCG; format: in vivo, (L.) Beau; conditions: 0.2500 kg/ha
Summary of the method: (§5)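 Greenhouse postemergence test. Seedlings about two weeks old sprayed (40 psi) with compound in 50/50 acetone/water, 0.5% TWEEN 20, at rates near 0.0157–0.500 kg/ha; rated 0–9 by eye at 4–5 weeks.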

MOOVA Monochoria = experiment: Postemergence weed control, flooded paddy (Table IV); format: in vivo, Monochoria vaginalis; design: scale not given here
Excerpt: as §1

CYPIR Rice Flatsedge [5] = experiment: Preemergence weed control, flooded paddy (Table III); format: in vivo, Cyperus iria; design: scale not given here
Protocol: (§6) Preemergence herbicidal activity under flooded paddy conditions is determined as follows: plant seeds or propagating organs are planted in the top 0.5 cm of silt loam soil in 32 oz. plastic containers with a diameter of 10.5 cm and no drainage holes. Water is added to these containers and maintained at 1.5 to 3 cm above the soil surface for the duration of the experiment. The test compounds are applied as aqueous/acetone mixtures 50/50 v/v pipetted directly into the flood water to give the equivalent of about 0.0313 to 0.500 kg/ha of active ingredient. The treated containers are placed on greenhouse benches and cared for in accordance with conventional greenhouse procedures. Three to four weeks after treatment, the test is terminated and each container is examined and herbicidal effect rated according to the rating system provided in Example 185. The compounds evaluated are reported by compound number given in Example 185.

CYPSE Flatsedge [6] = experiment: as above; format: in vivo, Cyperus serotinus; design: scale not given here
Protocol: as §6

[7] = tested on: Wheat, Winter, cv Riband, Triticum aestivum; experiment: Preemergence herbicidal evaluation, TRZAWR; format: in vivo; conditions: 0.2500 kg/ha
Excerpt: as §2, §3, §4

CYPIR Rice Flatsedge [8] = experiment: Postemergence weed control, flooded paddy (Table IV); format: in vivo, Cyperus iria; design: scale not given here
Excerpt: as §1

[9] = tested on: ECHORC Watergrass (Calif.); experiment: as above; format: in vivo, Echinochloa oryzoides; design: scale not given here
Excerpt: as §1

Galium, Galium aparine = experiment: Postemergence herbicidal evaluation, GALAP; format: in vivo; conditions: 0.2500 kg/ha
Summary of the method: as §5

[10] = tested on: Wheat, Winter, cv Riband, Triticum aestivum; experiment: Postemergence herbicidal evaluation, TRZAWR; format: in vivo; conditions: 0.2500 kg/ha
Summary of the method: as §5

[11] = tested on: Rice, Tebonnet, Oryza sativa; experiment: Postemergence herbicidal evaluation, ORYSAT; format: in vivo, (L.) Tebonnet; conditions: 0.2500 kg/ha
Summary of the method: as §5

CYPSE Flatsedge [12] = experiment: Postemergence weed control, flooded paddy (Table IV); format: in vivo, Cyperus serotinus; design: scale not given here
Excerpt: as §1

ORYSAT Rice, Tebonnet [13] = experiment: Rice tolerance, flooded paddy (Table IV); format: in vivo, Oryza sativa; design: scale not given here; conditions: crop tolerance
Excerpt: as §1

SMILES	herbicidal effect rating ([1]; 0.1250 kg/ha)	herbicidal effect rating ([1]; 0.2500 kg/ha)	herbicidal effect rating ([1]; 0.5000 kg/ha)	herbicide rating (0-9) [2]	herbicidal effect rating (ORYSAT Rice, Tebonnet [3]; 0.0625 kg/ha)	herbicidal effect rating (ORYSAT Rice, Tebonnet [3]; 0.1250 kg/ha)	herbicidal effect rating (ORYSAT Rice, Tebonnet [3]; 0.2500 kg/ha)	herbicidal effect rating (ORYSAT Rice, Tebonnet [3]; 0.5000 kg/ha)	herbicide rating (0-9) [4]	herbicidal effect rating (MOOVA Monochoria; 0.1250 kg/ha)	herbicidal effect rating (MOOVA Monochoria; 0.2500 kg/ha)	herbicidal effect rating (MOOVA Monochoria; 0.5000 kg/ha)	herbicidal effect rating (CYPIR Rice Flatsedge [5]; 0.0625 kg/ha)	herbicidal effect rating (CYPIR Rice Flatsedge [5]; 0.1250 kg/ha)	herbicidal effect rating (CYPIR Rice Flatsedge [5]; 0.2500 kg/ha)	herbicidal effect rating (CYPIR Rice Flatsedge [5]; 0.5000 kg/ha)	herbicidal effect rating (CYPSE Flatsedge [6]; 0.0625 kg/ha)	herbicidal effect rating (CYPSE Flatsedge [6]; 0.1250 kg/ha)	herbicidal effect rating (CYPSE Flatsedge [6]; 0.2500 kg/ha)	herbicidal effect rating (CYPSE Flatsedge [6]; 0.5000 kg/ha)	also measured
COC(=O)C(C)Oc1cc(C)ccc1-c1nsc2ccc(-n3c(=O)cc(C(F)(F)F)n(C)c3=O)cc12 (stereo not drawn) [Compound 9, Methyl 2-{{6-{5-[3,6-dihydro-3-methyl-4-(trifluoromethyl)-2,6-dioxo-1(2H)-pyrimidinyl]-1,2-benzisothiazol-3-yl}-m-tolyl}oxy}propionate]	2.0	9.0	9.0	9.0	7.0	7.0	8.0	9.0	9.0	9.0	9.0	9.0	9.0	9.0	9.0	9.0	4.0	9.0	9.0	9.0	herbicidal effect rating (ORYSAT Rice, Tebonnet [3]; 0.0313 kg/ha): 6.0; herbicidal effect rating (CYPIR Rice Flatsedge [5]; 0.0313 kg/ha): 9.0; herbicidal effect rating (CYPSE Flatsedge [6]; 0.0313 kg/ha): 2.0; herbicide rating (0-9) [7]: 9.0; herbicidal effect rating (CYPIR Rice Flatsedge [8]; 0.1250 kg/ha): 9.0; herbicidal effect rating (CYPIR Rice Flatsedge [8]; 0.2500 kg/ha): 9.0; herbicidal effect rating (CYPIR Rice Flatsedge [8]; 0.5000 kg/ha): 9.0; herbicidal effect rating ([9]; 0.1250 kg/ha): 9.0; herbicidal effect rating ([9]; 0.2500 kg/ha): 9.0; herbicidal effect rating ([9]; 0.5000 kg/ha): 9.0; herbicide rating (0-9) (Galium, Galium aparine): 8.0; herbicide rating (0-9) [10]: 9.0; herbicide rating (0-9) [11]: 9.0; herbicidal effect rating (CYPSE Flatsedge [12]; 0.1250 kg/ha): 2.0; herbicidal effect rating (CYPSE Flatsedge [12]; 0.2500 kg/ha): 7.0; herbicidal effect rating (CYPSE Flatsedge [12]; 0.5000 kg/ha): 9.0; herbicidal effect rating (ORYSAT Rice, Tebonnet [13]; 0.1250 kg/ha): 7.0; herbicidal effect rating (ORYSAT Rice, Tebonnet [13]; 0.2500 kg/ha): 9.0; herbicidal effect rating (ORYSAT Rice, Tebonnet [13]; 0.5000 kg/ha): 9.0
Cc1cc(O)c(-c2nsc3ccc(-n4c(=O)cc(C(F)(F)F)n(C)c4=O)cc23)cc1C [Compound 11, 3-[3-(6-Hydroxy-3,4-xylyl)-1,2-benzisothiazol-5-yl]-1-methyl-6-(trifluoromethyl)-2,4(1H,3H)-pyrimidinedione]	0.0	4.0	7.0	9.0	2.0	2.0	3.0	3.0	7.0	9.0	9.0	9.0	9.0	9.0	9.0	9.0	2.0	2.0	2.0	7.0	herbicide rating (0-9) [7]: 4.0; herbicidal effect rating (CYPIR Rice Flatsedge [8]; 0.1250 kg/ha): 9.0; herbicidal effect rating (CYPIR Rice Flatsedge [8]; 0.2500 kg/ha): 9.0; herbicidal effect rating (CYPIR Rice Flatsedge [8]; 0.5000 kg/ha): 9.0; herbicidal effect rating ([9]; 0.1250 kg/ha): 2.0; herbicidal effect rating ([9]; 0.2500 kg/ha): 4.0; herbicidal effect rating ([9]; 0.5000 kg/ha): 7.0; herbicide rating (0-9) (Galium, Galium aparine): 6.0; herbicide rating (0-9) [10]: 5.0; herbicide rating (0-9) [11]: 2.0; herbicidal effect rating (CYPSE Flatsedge [12]; 0.1250 kg/ha): 0.0; herbicidal effect rating (CYPSE Flatsedge [12]; 0.2500 kg/ha): 0.0; herbicidal effect rating (CYPSE Flatsedge [12]; 0.5000 kg/ha): 0.0; herbicidal effect rating (ORYSAT Rice, Tebonnet [13]; 0.1250 kg/ha): 0.0; herbicidal effect rating (ORYSAT Rice, Tebonnet [13]; 0.2500 kg/ha): 1.0; herbicidal effect rating (ORYSAT Rice, Tebonnet [13]; 0.5000 kg/ha): 1.0
COc1cc(C)ccc1-c1nsc2ccc(-n3c(=O)cc(C(F)(F)F)n(C)c3=O)cc12 [Compound 7, 3-[3-(2-Methoxy-p-tolyl)-1,2-benzisothiazol-5-yl]-1-methyl-6-(trifluoromethyl)-2,4(1H,3H)-pyrimidinedione]	4.0	9.0	9.0	9.0	8.0	7.0	7.0	9.0	8.0	9.0	9.0	9.0	9.0	9.0	9.0	9.0	7.0	8.0	7.0	9.0	herbicidal effect rating (ORYSAT Rice, Tebonnet [3]; 0.0313 kg/ha): 6.0; herbicidal effect rating (CYPIR Rice Flatsedge [5]; 0.0313 kg/ha): 9.0; herbicidal effect rating (CYPSE Flatsedge [6]; 0.0313 kg/ha): 7.0; herbicide rating (0-9) [7]: 6.0; herbicidal effect rating (CYPIR Rice Flatsedge [8]; 0.1250 kg/ha): 9.0; herbicidal effect rating (CYPIR Rice Flatsedge [8]; 0.2500 kg/ha): 9.0; herbicidal effect rating (CYPIR Rice Flatsedge [8]; 0.5000 kg/ha): 9.0; herbicidal effect rating ([9]; 0.1250 kg/ha): 9.0; herbicidal effect rating ([9]; 0.2500 kg/ha): 9.0; herbicidal effect rating ([9]; 0.5000 kg/ha): 9.0; herbicide rating (0-9) (Galium, Galium aparine): 8.0; herbicide rating (0-9) [10]: 7.0; herbicide rating (0-9) [11]: 6.5; herbicidal effect rating (CYPSE Flatsedge [12]; 0.1250 kg/ha): 9.0; herbicidal effect rating (CYPSE Flatsedge [12]; 0.2500 kg/ha): 9.0; herbicidal effect rating (CYPSE Flatsedge [12]; 0.5000 kg/ha): 8.0; herbicidal effect rating (ORYSAT Rice, Tebonnet [13]; 0.1250 kg/ha): 7.0; herbicidal effect rating (ORYSAT Rice, Tebonnet [13]; 0.2500 kg/ha): 7.0; herbicidal effect rating (ORYSAT Rice, Tebonnet [13]; 0.5000 kg/ha): 8.0
